Structures are written as SMILES.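 Five compound concentrations were applied to cells in 96-well plates for 48 hours; endpoints were derived by simple linear interpolation of the resulting dose-response curve. TGI is the concentration that stops growth completely.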

Some test systems named below: A549 NSCLC; 786-0 renal; HCT-15 colon; OVCAR-4 ovarian; NCI-H460 lung; SF-268 CNS; BT-549 breast; ACHN renal; NCI-H23 lung; HL-60(TB) leukemia; LOX IMVI melanoma; HOP-62 NSCLC; OVCAR-3 ovarian; SNB-75 CNS; NCI-H226 lung; A498 renal; MDA-N; K-562 leukemia; RPMI-8226 leukemia; CCRF-CEM leukemia.
Experiment in all cases: DTP human tumour cell line panel, 48 h

As usually defined, the TGI is the concentration giving total growth inhibition. A lower TGI goes with more potent growth arrest. Take `C/C(O)=C(\C=N\C(=S)N=Nc1c(O)[nH]c2ccccc12)C(=O)Nc1ccccc1C`: the TGI in the test with A549 NSCLC, with 786-0 renal, with HCT-15 colon, with OVCAR-4 ovarian, with NCI-H460 lung and in the test with SF-268 CNS was > 100 µM each time. Moreover, the TGI with BT-549 breast, in the test with ACHN renal, with NCI-H23 lung, in the test with HL-60(TB) leukemia, with LOX IMVI melanoma and with HOP-62 NSCLC was > 100 µM throughout. The TGI with OVCAR-3 ovarian, in the test with SNB-75 CNS, with NCI-H226 lung, in the test on A498 renal and in the test with MDA-N was > 100 µM each time.
Turning to `C=C(C)[C@H]1CC[C@@]23O[C@@H]2[C@@H](C[C@@]2(C)CC(=O)[C@H](CC(=O)C1)O2)OC(=O)[C@@]12CC[C@H](C(=C)C)CC(=O)C[C@H]4O[C@](C)(CC4=O)C[C@@H](OC3=O)[C@@H]1O2`, the TGI in the test with A549 NSCLC, in the test with 786-0 renal, in the test with HCT-15 colon, with OVCAR-4 ovarian, in the test with K-562 leukemia and in the test with ACHN renal was > 100 µM each time. Further, the TGI in the test with NCI-H23 lung, in the test with RPMI-8226 leukemia, with HL-60(TB) leukemia, with LOX IMVI melanoma, with HOP-62 NSCLC and in the test on OVCAR-3 ovarian was > 100 µM throughout. Further, the TGI in the test with SNB-75 CNS, with NCI-H226 lung, in the test on CCRF-CEM leukemia, in the test with A498 renal and in the test on MDA-N was > 100 µM in each case.
Regarding `C=C1CN=C(Nc2ccc(Cl)cc2)S1`, the TGI in the test with A549 NSCLC, in the test on 786-0 renal, in the test with HCT-15 colon, in the test with OVCAR-4 ovarian, in the test on NCI-H460 lung and with SF-268 CNS was > 100 µM throughout. Also, the TGI is > 100 µM in the test on K-562 leukemia; > 100 µM in the test with ACHN renal; > 100 µM in the test on NCI-H23 lung; > 100 µM in the test on RPMI-8226 leukemia; > 10 µM in the test with HL-60(TB) leukemia; > 100 µM in the test with LOX IMVI melanoma. Moreover, the TGI with HOP-62 NSCLC, with OVCAR-3 ovarian, in the test on SNB-75 CNS, with CCRF-CEM leukemia, in the test with A498 renal and in the test with MDA-N was > 100 µM in each case.
With `O=C1CSC(c2ccccc2O)N1c1ccc2c(c1)Oc1c(Cl)c3c(c(Cl)c1=N2)Oc1cc(N2C(=O)CSC2c2ccccc2O)ccc1N=3` (centres undefined), the TGI in the test on 786-0 renal, in the test on HCT-15 colon, in the test with OVCAR-4 ovarian, in the test with NCI-H460 lung, with SF-268 CNS and with K-562 leukemia was > 100 µM throughout. Besides, the TGI with ACHN renal is 55.1 µM; with NCI-H23 lung it was > 100 µM; in the test with RPMI-8226 leukemia, > 100 µM; with HL-60(TB) leukemia, > 100 µM; with LOX IMVI melanoma it was > 100 µM; in the test on HOP-62 NSCLC it was > 100 µM. Further, the TGI in the test with OVCAR-3 ovarian, in the test on NCI-H226 lung, in the test with CCRF-CEM leukemia, in the test on A498 renal and with MDA-N was > 100 µM throughout.
For `O[C@@]1(C#Cc2ccc3c(c2)OCO3)CCC[C@H]1NCc1ccccc1`, the TGI with A549 NSCLC is > 100 µM; in the test with 786-0 renal, 31.3 µM; in the test on HCT-15 colon, 47.3 µM; in the test on OVCAR-4 ovarian it was > 100 µM; in the test on NCI-H460 lung, 69 µM; in the test with SF-268 CNS, > 100 µM. Further, the TGI in the test with K-562 leukemia was 41.5 µM; in the test on ACHN renal it was > 100 µM; in the test with NCI-H23 lung it was > 100 µM; in the test on RPMI-8226 leukemia it was 56 µM; in the test on HL-60(TB) leukemia, 39.1 µM; in the test on LOX IMVI melanoma, 30.9 µM. Besides, the TGI worked out at 78.2 µM in the test on HOP-62 NSCLC; 47.4 µM with OVCAR-3 ovarian; 89.8 µM with SNB-75 CNS; 51.2 µM with NCI-H226 lung; 99.7 µM in the test with CCRF-CEM leukemia; 92.5 µM with A498 renal. Further, the TGI in the test with MDA-N was 32.5 µM.
`CC1(C)CC[C@]2(C(=O)O)CC[C@]3(C)C(=CCC4=C5C[C@H](O)[C@H](O)[C@@](C)(CO)[C@@]5(C)CC[C@]43C)[C@@H]2C1`: the TGI with A549 NSCLC is > 100 µM; in the test with 786-0 renal it was > 100 µM; with HCT-15 colon, > 100 µM; with OVCAR-4 ovarian, 71.4 µM; with NCI-H460 lung it was 81.8 µM; in the test with SF-268 CNS, > 100 µM. Further, the TGI in the test with K-562 leukemia, in the test on ACHN renal, in the test on NCI-H23 lung, in the test with RPMI-8226 leukemia, in the test with HL-60(TB) leukemia and with LOX IMVI melanoma was > 100 µM in each case. For the same molecule, the TGI in the test with HOP-62 NSCLC is > 100 µM; in the test on OVCAR-3 ovarian it was > 100 µM; in the test on SNB-75 CNS, 83.8 µM; with CCRF-CEM leukemia, > 100 µM; in the test on A498 renal, > 100 µM; with MDA-N it was > 100 µM.
On to `CCCCCCCCOC(=O)C12Oc3ccc(-c4ccc5c(c4O)C(O)=C4C(=O)CC(C)C(O)C4(C(=O)OCCCCCCCC)O5)c(O)c3C(O)=C1C(=O)CC(C)C2O` (centres undefined), for which the TGI with A549 NSCLC, in the test with 786-0 renal, with HCT-15 colon, with OVCAR-4 ovarian, in the test with NCI-H460 lung and in the test on SF-268 CNS was > 100 µM throughout. Moreover, the TGI in the test with K-562 leukemia was 17.4 µM; in the test with BT-549 breast, 41.9 µM; with ACHN renal it was 25.5 µM; in the test with NCI-H23 lung, 31.5 µM; in the test with HL-60(TB) leukemia, 9.61 µM; with LOX IMVI melanoma, > 100 µM. Moreover, the TGI with OVCAR-3 ovarian was > 100 µM; in the test with SNB-75 CNS it was 25.5 µM; in the test with NCI-H226 lung, > 100 µM; in the test with CCRF-CEM leukemia it was 17.9 µM; with A498 renal, > 100 µM; with MDA-N it was > 100 µM.
